Measured values: ChEMBL document CHEMBL4420060, “Combinatorial therapies for the treatment of neoplasias using the opioid growth factor receptor” (2013)
Activity calls are given as the source filed them. The rule behind the calls is not given here.

Assays:
MIA PaCa-2 [1] = assay: Growth inhibition of human MIAPaCa2 cells assessed as decrease in cell number at 1 uM incubated for 96 hrs by MTS assay relative to control; assay type: functional
MIA PaCa-2 [2] = assay: Growth inhibition of human MIAPaCa2 cells assessed as decrease in cell number at 10 uM incubated for 24 hrs in presence of 1 uM OGF by MTS assay relative to control; assay type: functional
MIA PaCa-2 [3] = assay: Growth inhibition of human MIAPaCa2 cells assessed as decrease in cell number at 10 uM incubated for 48 hrs in presence of 1 uM OGF by MTS assay relative to control; assay type: functional
MIA PaCa-2 [4] = assay: Growth inhibition of human MIAPaCa2 cells assessed as decrease in cell number at 10 uM incubated for 72 hrs in presence of 1 uM OGF by MTS assay relative to control; assay type: functional
MIA PaCa-2 [5] = assay: Growth inhibition of human MIAPaCa2 cells assessed as decrease in cell number at 10 uM incubated for 96 hrs in presence of 1 uM OGF by MTS assay relative to control; assay type: functional
MIA PaCa-2 [6] = assay: Growth inhibition of human MIAPaCa2 cells assessed as decrease in cell number at 1 uM incubated for 24 hrs in presence of 1 uM OGF by MTS assay relative to control; assay type: functional; details: MIA PaCa-2, 24 h, read-out: GI
MIA PaCa-2 [7] = assay: Growth inhibition of human MIAPaCa2 cells assessed as decrease in cell number at 1 uM incubated for 48 hrs in presence of 1 uM OGF by MTS assay relative to control; assay type: functional; details: MIA PaCa-2, 48 h, read-out: GI
MIA PaCa-2 [8] = assay: Growth inhibition of human MIAPaCa2 cells assessed as decrease in cell number at 1 uM incubated for 72 hrs in presence of 1 uM OGF by MTS assay relative to control; assay type: functional; details: MIA PaCa-2, 72 h, read-out: GI
MIA PaCa-2 [9] = assay: Growth inhibition of human MIAPaCa2 cells assessed as decrease in cell number at 1 uM incubated for 48 to 96 hrs by MTS assay relative to control; assay type: functional; set-up: scale not given: the % may be the effect or the level left
MIA PaCa-2 [10] = assay: Growth inhibition of human MIAPaCa2 cells assessed as decrease in cell number at 1 uM incubated for 24 to 96 hrs in presence of 1 uM OGF by MTS assay relative to control; assay type: functional; set-up: scale not given: the % may be the effect or the level left
UMSCC1 = assay: Growth inhibition of human UM-SCC-1 cells assessed as decrease in cell number at 1 uM by MTS assay relative to control; assay type: functional, cell-based

CC[C@H](C)C(NC(=O)[C@@H](NC(=O)[C@H](C)NC(=O)[C@H](CC(N)=O)NC(=O)[C@H](CCCCN)NC(=O)[C@H](Cc1ccccc1)NC(=O)[C@H](CC(C)C)NC(=O)[C@@H](NC(=O)[C@@H](NC(=O)[C@H](CC(C)C)NC(=O)[C@@H]1CCCN1C(=O)[C@@H](NC(=O)[C@H](CCC(N)=O)NC(=O)[C@H](CO)NC(=O)[C@H](CCCCN)NC(=O)[C@H](CCC(=O)O)NC(=O)[C@H](CO)NC(=O)[C@@H](NC(=O)[C@H](CCSC)NC(=O)[C@H](Cc1ccccc1)NC(=O)CNC(=O)CNC(=O)[C@@H](N)Cc1ccc(O)cc1)[C@@H](C)O)C(C)O)C(C)C)[C@@H](C)O)[C@@H](C)CC)C(=O)N[C@@H](CCCCN)C(=O)N[C@@H](CC(N)=O)C(=O)N[C@@H](C)C(=O)N[C@@H](Cc1ccc(O)cc1)C(=O)N[C@@H](CCCCN)C(=O)N[C@@H](CCCCCN)C(=O)NCC(=O)N[C@@H](CCC(=O)O)C(=O)O (some centres undefined)
growth inhibition (GI) (MIA PaCa-2 [1]): inactive

O=c1[nH]cc(F)c(=O)[nH]1 [FLUOROURACIL]
growth inhibition (GI) (MIA PaCa-2 [2]): 21.5%
growth inhibition (GI) (MIA PaCa-2 [3]): 35.7%
growth inhibition (GI) (MIA PaCa-2 [4]): 39.7%
growth inhibition (GI) (MIA PaCa-2 [5]): 47.4%
inhibition of growth at 1 µM (MIA PaCa-2 [6]): 13.2%
inhibition of growth at 1 µM (MIA PaCa-2 [7]): 22.2%
inhibition of growth at 1 µM (MIA PaCa-2 [8]): 23.6%
Activity (MIA PaCa-2 [9]): 11 - 15%
Activity (MIA PaCa-2 [10]): 13 - 30%

NC(=O)[C@H](Cc1ccccc1)NC(=O)[C@H](Cc1c[nH]c2ccccc12)NC(=O)[C@@H]1CCCN1C(=O)[C@@H](N)Cc1ccc(O)cc1
growth inhibition (GI) (MIA PaCa-2 [1]): inactive
growth inhibition (GI) (UMSCC1): inactive

CC1(C)SSC(C)(C)[C@@H](NC(=O)[C@@H](N)Cc2ccc(O)cc2)C(=O)NCC(=O)N[C@@H](Cc2ccccc2)C(=O)N[C@H]1C(=O)O
growth inhibition (GI) (MIA PaCa-2 [1]): inactive
growth inhibition (GI) (UMSCC1): inactive
